Numbered stars: 1 amine (or outer) side, 2 acyl side, 3 side chain; on linkers, the order of the positions; unused ones are H or OH. Bridge positions count the residues as written; N and C are the ends. Square brackets hold non-standard residues; d marks the D form. Peptide text beside a SMILES is read from it. * marks the point of attachment. C20 diacid = O=C(O)CCCCCCCCCCCCCCCCCCC(=O)*; γGlu = O=C(O)[C@H](CCC(=O)[*:2])N[*:1]; Hyp = O=C(O)[C@@H]1C[C@@H](O)CN1; NMeI = CC[C@H](C)[C@H](NC)C(=O)O; Orn = NCCC[C@H](N)C(=O)O; Dab = NCC[C@H](N)C(=O)O; Dap = NC[C@H](N)C(=O)O; Sar = CNCC(=O)O
Tests used:
[1] = biological target: T1, recombinant human amylin 3 receptor (hAMYR3) (Homo sapiens, UniProt O60896+P30988); assay: hAMYR3 cAMP assay (AlphaScreen) in 1321N1 cells; type: cell-based; settings: cAMP formation, 45 min stimulation
T1 construct: host or cells: human astrocytoma cell line 1321N1
T1 sequence (P30988 25-474): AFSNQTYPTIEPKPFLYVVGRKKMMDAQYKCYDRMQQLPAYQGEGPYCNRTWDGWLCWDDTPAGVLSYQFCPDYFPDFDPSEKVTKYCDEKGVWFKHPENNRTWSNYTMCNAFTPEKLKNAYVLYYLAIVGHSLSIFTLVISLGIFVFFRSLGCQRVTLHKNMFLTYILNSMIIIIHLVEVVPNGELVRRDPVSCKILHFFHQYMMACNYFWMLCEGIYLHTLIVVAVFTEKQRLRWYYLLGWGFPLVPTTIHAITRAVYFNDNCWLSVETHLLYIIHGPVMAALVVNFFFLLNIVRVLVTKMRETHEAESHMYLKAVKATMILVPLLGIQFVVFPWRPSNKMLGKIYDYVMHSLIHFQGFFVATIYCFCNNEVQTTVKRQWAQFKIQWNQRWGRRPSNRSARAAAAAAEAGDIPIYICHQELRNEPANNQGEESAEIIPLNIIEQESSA
T1 sequence (O60896 24-148 partner): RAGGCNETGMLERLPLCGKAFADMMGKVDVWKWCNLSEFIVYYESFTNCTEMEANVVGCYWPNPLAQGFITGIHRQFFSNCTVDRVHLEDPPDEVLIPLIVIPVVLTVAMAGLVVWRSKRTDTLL
Text: (§1) For the assessment of the in vitro activity of test peptides, cell lines expressing recombinant human calcitonin receptor (hCT-R) or recombinant human amylin 3 receptor (hAMYR3) in the background of the human astrocytoma cell line 1321N1 were purchased from DiscoveRx Corporation (Cat. No. 95-016106 and 95-0166C6). The hAMYR3 is a hetero-oligomer of the calcitonin receptor (Isoform 2; Gene ID 799) and RAMPS (Gene ID 10268) that forms when both genes are expressed in the same cell. The hCT-R cell line expresses only the recombinant human calcitonin receptor gene (Isoform 2; Gene ID 799). Upon activation of hCT-R or hAMYR3 by the test peptides the formation of cAMP is induced and was measured using the AlphaScreen® cAMP Assay kit from Perkin-Elmer (Cat. No. 6760635R).
(§2) Briefly, 1321N1 cells expressing hCT-R or hAMYR3 were seeded in 384-well microtiter plates (Falcon Optilux White, Cat.-No. 10448642) at 5,000 cells in […] growth medium per well (AssayComplete 1321N1 Cell Culture Kit, DiscoveRx Corp.), and incubated for 24 h at 37° C., 5% CO2. On the day of analysis growth medium was removed and the cells were stimulated by adding 10 μL of stimulation buffer (10 […], 0.1% BSA) containing increasing concentrations of test peptides, and incubation for 45 min at room temperature. The stimulation was stopped by adding 5.6 μL/well donor bead detection mix (5 mM Hepes pH7.4, 0.5% TWEEN 20, 0.1% BSA, 0.05 mg/mL donor beads, 62.5 nM biotinylated cAMP) and 4.5 μL/well acceptor bead solution (5 mM Hepes pH7.4, 0.5% TWEEN 20, 0.1% BSA, 0.05 mg/mL acceptor beads). After thorough mixing the plates were incubated in the dark for 1 h at room temperature and the cAMP content of the resulting cell lysates was estimated according to the AlphaScreen® cAMP Assay manufacturer's instructions. EC50 values were estimated by computer-aided curve fitting of results of at least 7 different compound concentrations.

[2] = biological target: T2, recombinant human calcitonin receptor (hCT-R) (Homo sapiens, UniProt P30988); assay: hCT-R cAMP assay (AlphaScreen) in 1321N1 cells; type: cell-based; settings: cAMP formation, 45 min stimulation
T2 construct: host or cells: human astrocytoma cell line 1321N1
T2 sequence (P30988 25-474): T1 sequence (P30988 25-474)
Text: as §1, §2

Row | SMILES | EC50 [1] | EC50 [2]
1 | CC[C@H](C)[C@@H](C(=O)N[C@@H](CC(C)C)C(=O)N[C@@H](CO)C(=O)N[C@@H](CO)C(=O)N[C@H](C(=O)N[C@@H](CCC(=O)O)C(=O)N[C@H](C(=O)NCC(=O)N[C@@H](CO)C(=O)N[C@@H](CC(N)=O)C(=O)N[C@H](C(=O)N1C[C@H](O)C[C@H]1C(N)=O)[C@@H](C)O)C(C)C)[C@@H](C)O)N(C)C(=O)[C@H](C)NC(=O)CN(C)C(=O)[C@H](Cc1ccccc1)NC(=O)[C@H](CO)NC(=O)[C@H](CO)NC(=O)[C@H](CCCNC(=N)N)NC(=O)[C@H](CCC(N)=O)NC(=O)[C@H](CC(C)C)NC(=O)[C@H](Cc1ccccc1)NC(=O)[C@H](Cc1c[nH]cn1)NC(=O)[C@H](C)NC(=O)[C@H](CC(C)C)NC(=O)[C@H](CCCNC(=N)N)NC(=O)[C@H](CCC(=O)O)NC(=O)[C@@H](NC(=O)[C@H](C)NC(=O)[C@@H]1CNC(=O)C[C@H](NC(=O)[C@H](CCCNC(=N)N)NC(=O)CC[C@H](NC(=O)CCCCCCCCCCCCCCCCCCC(=O)O)C(=O)O)C(=O)NCC(=O)N[C@@H]([C@@H](C)O)C(=O)N[C@@H](C)C(=O)N[C@@H]([C@@H](C)O)C(=O)N1)[C@@H](C)O [Compound 1, [19CD]-isoGlu-RD()GTAT-Dap()-ATERLAHFLQRSSF-Gly(Me)-A-Ile(Me)-LSSTEVGSNT-Hyp-NH2] ({C20 diacid-γGlu}-RDGTAT[Dap]ATERLAHFLQRSSF[Sar]A[NMeI]LSSTEVGSNT[Hyp]-NH2; lactam 2-7) | 9.3 nM | 13.6 nM
2 | CC[C@H](C)[C@@H](C(=O)N[C@@H](CC(C)C)C(=O)N[C@@H](CO)C(=O)N[C@@H](CO)C(=O)N[C@H](C(=O)N[C@@H](CCC(=O)O)C(=O)N[C@H](C(=O)NCC(=O)N[C@@H](CO)C(=O)N[C@@H](CC(N)=O)C(=O)N[C@H](C(=O)N1CCC[C@H]1C(N)=O)[C@@H](C)O)C(C)C)[C@@H](C)O)N(C)C(=O)[C@H](C)NC(=O)CN(C)C(=O)[C@H](Cc1ccccc1)NC(=O)[C@H](CO)NC(=O)[C@H](CO)NC(=O)[C@H](CCCNC(=N)N)NC(=O)[C@H](Cc1c[nH]cn1)NC(=O)[C@H](CC(C)C)NC(=O)[C@H](Cc1ccccc1)NC(=O)[C@H](Cc1c[nH]cn1)NC(=O)[C@H](C)NC(=O)[C@H](CC(C)C)NC(=O)[C@H](CCCNC(=N)N)NC(=O)[C@H](CCC(=O)O)NC(=O)[C@@H](NC(=O)[C@H](C)NC(=O)[C@@H]1CCCNC(=O)C[C@H](NC(=O)[C@H](CCCNC(=N)N)NC(=O)CC[C@H](NC(=O)CCCCCCCCCCCCCCCCCCC(=O)O)C(=O)O)C(=O)NCC(=O)N[C@@H]([C@@H](C)O)C(=O)N[C@@H](C)C(=O)N[C@@H]([C@@H](C)O)C(=O)N1)[C@@H](C)O [Compound 7, [19CD]-isoGlu-RD()GTAT-Orn()-ATERLAHFLHRSSF-Gly(Me)-A-Ile(Me)-LSSTEVGSNTP-NH2] ({C20 diacid-γGlu}-RDGTAT[Orn]ATERLAHFLHRSSF[Sar]A[NMeI]LSSTEVGSNTP-NH2; lactam 2-7) | 0.032 nM | 0.289 nM

Other lines, results leading:

Row | EC50 [1] | EC50 [2] | SMILES
3 | 0.032 nM | 0.105 nM | CC[C@H](C)[C@@H](C(=O)N[C@@H](CC(C)C)C(=O)N[C@@H](CO)C(=O)N[C@@H](CO)C(=O)N[C@H](C(=O)N[C@@H](CCC(=O)O)C(=O)N[C@H](C(=O)NCC(=O)N[C@@H](CO)C(=O)N[C@@H](CC(N)=O)C(=O)N[C@H](C(=O)N1C[C@H](O)C[C@H]1C(N)=O)[C@@H](C)O)C(C)C)[C@@H](C)O)N(C)C(=O)[C@H](C)NC(=O)CN(C)C(=O)[C@H](Cc1ccccc1)NC(=O)[C@H](CO)NC(=O)[C@H](CO)NC(=O)[C@H](CCCNC(=N)N)NC(=O)[C@H](CCC(N)=O)NC(=O)[C@H](CC(C)C)NC(=O)[C@H](Cc1ccccc1)NC(=O)[C@H](Cc1c[nH]cn1)NC(=O)[C@H](C)NC(=O)[C@H](CC(C)C)NC(=O)[C@H](CCCNC(=N)N)NC(=O)[C@H](CCC(=O)O)NC(=O)[C@@H](NC(=O)[C@H](C)NC(=O)[C@@H]1CCNC(=O)C[C@H](NC(=O)[C@H](CCCNC(=N)N)NC(=O)CC[C@H](NC(=O)CCCCCCCCCCCCCCCCCCC(=O)O)C(=O)O)C(=O)NCC(=O)N[C@@H]([C@@H](C)O)C(=O)N[C@@H](C)C(=O)N[C@@H]([C@@H](C)O)C(=O)N1)[C@@H](C)O [Compound 2, [19CD]-isoGlu-RD()GTAT-Dab()-ATERLAHFLQRSSF-Gly(Me)-A-Ile(Me)-LSSTEVGSNT-Hyp-NH2] ({C20 diacid-γGlu}-RDGTAT[Dab]ATERLAHFLQRSSF[Sar]A[NMeI]LSSTEVGSNT[Hyp]-NH2; lactam 2-7)
4 | 0.032 nM | 0.114 nM | CC[C@H](C)[C@@H](C(=O)N1CCC[C@H]1C(=O)N[C@@H](CO)C(=O)N[C@@H](CO)C(=O)N[C@H](C(=O)N[C@@H](CCC(=O)O)C(=O)N[C@H](C(=O)NCC(=O)N[C@@H](CO)C(=O)N[C@@H](CC(N)=O)C(=O)N[C@H](C(=O)N1C[C@H](O)C[C@H]1C(N)=O)[C@@H](C)O)C(C)C)[C@@H](C)O)N(C)C(=O)[C@H](C)NC(=O)CN(C)C(=O)[C@H](Cc1ccccc1)NC(=O)[C@H](CO)NC(=O)[C@H](CO)NC(=O)[C@H](CCCNC(=N)N)NC(=O)[C@H](CCC(N)=O)NC(=O)[C@H](CC(C)C)NC(=O)[C@H](Cc1ccccc1)NC(=O)[C@H](Cc1c[nH]cn1)NC(=O)[C@H](C)NC(=O)[C@H](CC(C)C)NC(=O)[C@H](CCCNC(=N)N)NC(=O)[C@H](CCC(=O)O)NC(=O)[C@@H](NC(=O)[C@H](C)NC(=O)[C@@H]1CCCNC(=O)C[C@H](NC(=O)[C@H](CCCNC(=N)N)NC(=O)CC[C@H](NC(=O)CCCCCCCCCCCCCCCCCCC(=O)O)C(=O)O)C(=O)NCC(=O)N[C@@H]([C@@H](C)O)C(=O)N[C@@H](C)C(=O)N[C@@H]([C@@H](C)O)C(=O)N1)[C@@H](C)O [Compound 5, [19CD]-isoGlu-RD()GTAT-Orn()-ATERLAHFLQRSSF-Gly(Me)-A-Ile(Me)-PSSTEVGSNT-Hyp-NH2] ({C20 diacid-γGlu}-RDGTAT[Orn]ATERLAHFLQRSSF[Sar]A[NMeI]PSSTEVGSNT[Hyp]-NH2; lactam 2-7)
5 | 0.011 nM | 0.327 nM | CC[C@H](C)[C@@H](C(=O)N[C@@H](CC(C)C)C(=O)N[C@@H](CO)C(=O)N[C@@H](CO)C(=O)N[C@H](C(=O)N[C@@H](CCC(=O)O)C(=O)N[C@H](C(=O)NCC(=O)N[C@@H](CO)C(=O)N[C@@H](CC(N)=O)C(=O)N[C@H](C(=O)N1C[C@H](O)C[C@H]1C(N)=O)[C@@H](C)O)C(C)C)[C@@H](C)O)N(C)C(=O)[C@H](C)NC(=O)CN(C)C(=O)[C@H](Cc1ccccc1)NC(=O)[C@H](CCCNC(=N)N)NC(=O)[C@H](CCC(N)=O)NC(=O)[C@H](CC(C)C)NC(=O)[C@H](Cc1ccccc1)NC(=O)[C@H](Cc1c[nH]cn1)NC(=O)[C@H](C)NC(=O)[C@H](CC(C)C)NC(=O)[C@H](CCCNC(=N)N)NC(=O)[C@H](CCC(=O)O)NC(=O)[C@@H](NC(=O)[C@H](C)NC(=O)[C@@H]1CCCNC(=O)C[C@H](NC(=O)[C@H](CCCNC(=N)N)NC(=O)CC[C@H](NC(=O)CCCCCCCCCCCCCCCCCCC(=O)O)C(=O)O)C(=O)NCC(=O)N[C@@H]([C@@H](C)O)C(=O)N[C@@H](C)C(=O)N[C@@H]([C@@H](C)O)C(=O)N1)[C@@H](C)O [Compound 6, [19CD]-isoGlu-RD()GTAT-Orn()-ATERLAHFLQRF-Gly(Me)-A-Ile(Me)-LSSTEVGSNT-Hyp-NH2] ({C20 diacid-γGlu}-RDGTAT[Orn]ATERLAHFLQRF[Sar]A[NMeI]LSSTEVGSNT[Hyp]-NH2; lactam 2-7)

Source: US11382956B2, “Amylin analogues” (Zealand Pharma A/S, priority 2016, dated 2022)
